Results published in patent publication US20040138301A1, “Chemical uncouplers for the treatment of obesity” (priority 2002, published 2004).

Columns and labels:
[1] = system: HEP-G2 cells; experiment: cells; settings: for EC50 / Emax / EC (Emax): Homo sapiens; for EC50: HepG2, 3 h, read-out: HEP-G2 EC50, HEP-G2 cells, glucose utilisation, 3 hours incubation; for Emax: HepG2, read-out: HEP-G2 Emax (% of FCCP), HEP-G2 cells, maximal stimulation relative to FCCP; for EC (Emax): HepG2, read-out: HEP-G2 Emax (μM), HEP-G2 cells, concentration at which Emax is achieved (CEmax)
Method in brief: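 HEP-G2 cells were treated with compound for 3 h at 37 °C in MEM/0.5% BSA containing 10 μCi/ml D-(3-^3H(N))-glucose, then lysed with TCA; ^3H-water released via the respiratory chain was recovered by evaporation at 50 °C and counted. Values are corrected for non-specific and basal counts, expressed as % of maximal FCCP or DNP stimulation, and EC50 is from a variable-slope sigmoidal fit.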

[2] = system: isolated mitochondria; experiment: Assay (II): effect of chemical uncouplers on mitochondrial respiration using isolated mitochondria (oxygen consumption); assay type: biochemical
Protocol: Assay (II)—The Effect of Chemical Uncouplers on Mitochondrial Respiration Using Isolated Mitochondria.
This assay is used to investigate if the increase in glucose utilisation caused by the test compounds observed in the glucose utilisation assay is due to an increase in the respiration of the mitochondria. This is done by measuring oxygen consumption in isolated mitochondria.
A Clark oxygen electrode is used to determine the oxygen consumption. The isolated mitochondria are added to medium containing oxygen and nutrients (e.g. Succinate) and the rate of oxygen consumptions is measured, when stabilized a small amount of ADP is added to increase the respiration and an increase in the rate of oxygen consumption is measured. When the rate of oxygen consumption again has stabilized the test compound is added and a further increase in oxygen consumption is seen. This experiment is done with and without the addition of oligomycin which is an inhibitor of the ATP-synthase. Finally, the test compound is examined without adding ADP. If the test compound stimulates the rate of oxygen consumption in all setups, it is regarded as a chemical uncoupler.

SMILES | EC50 [1] [nM] | Emax [1] [%] | EC (Emax) [1] [µM] | Mito State-4 [2] | HEP-G2 Tox ([1]; human, 3 h)
N#CC(C#N)=NNc1ccc(OC(F)(F)F)cc1 [Example 27, Carbonylcyanide p-Trifluoromethoxy-Phenylhydrazone, reference compound] | 3000 | 100 | 30 | Ok | 
N#CC(C#N)=Cc1c(Cl)[nH]c2ccccc12 [Example 34, 2-(2-Chloro-1H-Indol-3-Ylmethylene)-Malononitrile] | 1400 | 80 | 10 | Ok | 
Cc1c(Br)cc(C(C)(C)C)c(O)c1C(=O)Nc1ccc([N+](=O)[O-])cc1Cl [Example 37, 3-Bromo-5-Tert-Butyl-N-(2-Chloro-4-Nitro-Phenyl)-6-Hydroxy-2-Methyl-Benzamide] | 35 | 100 | 1 | Ok | 
Cc1c(Cl)cc(C(C)(C)C)c(O)c1C(=O)Nc1ccc([N+](=O)[O-])cc1C(F)(F)F [Example 50, 3-Tert-Butyl-5-Chloro-2-Hydroxy-6-Methyl-N-(4-Nitro-2-Trifluoromethyl-Phenyl)-Benzamide] | 30 | 82 | 0.1 | Ok | 
Cc1cc(C(C#N)c2ccc(Cl)cc2)c(Cl)cc1NC(=O)c1c(C)c(Br)cc(C(C)(C)C)c1O (stereo not shown) [Example 56, 3-Bromo-5-Tert-Butyl-N-{5-Chloro-4-[(4-Chloro-Phenyl)-Cyano-Methyl]-2-Methyl-Phenyl}-6-Hydroxy-2-Methyl-Benzamide] | 6600 | 100 | 100 | Ok | 
CC(=C(C#N)C#N)c1cc(C(C)(C)C)c(O)c(C(C)(C)C)c1 [Example 75, 2-[1-(3,5-Di-Tert-Butyl-4-Hydroxy-Phenyl)-Ethylidene]-Malononitrile] | 360 | 120 | 30 | Ok | Tox 0.3 mM

The next lines start with results.

EC50 [1] [nM] | SMILES | Emax [1] [%] | EC (Emax) [1] [µM] | Mito State-4 [2] | HEP-G2 Tox ([1]; human, 3 h)
19500 | N#CC(C#N)=Cc1c[nH]c2ccc(Cl)cc12 [Example 30, 2-((5-Chloro-1H-Indol-3-Yl)Methylene)Malononitrile] | 60 | 100 | Ok | 
30 | Cc1c(Br)cc(C(C)(C)C)c(O)c1C(=O)Nc1ccc([N+](=O)[O-])cc1C(F)(F)F [Example 58, 3-Bromo-5-Tert-Butyl-6-Hydroxy-2-Methyl-N-(4-Nitro-2-Trifluoromethyl-Phenyl)-Benzamide] | 100 | 0.1 | Ok | 
310 | CC(C)(C)c1cc(/C=C(\C#N)c2ccc([N+](=O)[O-])cc2)cc(C(C)(C)C)c1O [Example 77, 3-(3,5-Di-Tert-Butyl-4-Hydroxy-Phenyl)-2-(4-Nitro-Phenyl)-Acrylonitrile] | 100 | 3 | Ok | 
